Data taken from US20200253211A1, “PHOTODYNAMIC INHIBITION OF MICROBIAL PATHOGENS IN PLANTS” (SUNCOR ENERGY INC, priority 2017, published 2020).

Columns and labels:
Type in all cases: cell-based
[1] = tested on: Sclerotinia homoeocarpa; test: Radial growth of dollar spot fungus on amended Potato Dextrose Agar, dark vs light; details: for inhibition at 500 µM / inhibition at 1000 µM / inhibition at 2000 µM: Clarireedia homoeocarpa
[2] = tested on: E. Coli K-12; test: E. Coli assay under LED lamps, colony count; details: Table 11; light; 5 mM Baypure CX
Description: Regarding the E. Coli assay tests in the above examples, the following procedure was used: • 1. E. Coli K-12 inoculated in 5 mL TSB and placed in a shaking incubator overnight. • 2. Dilute culture in 500 mL PBS (˜10̂8 CFU/mL) and placed in shaking incubator for 30 minutes at […]. • 3.15 mL samples created using 12 mL culture and a mixture of PBS buffer and sample compounds. • 4. Placed under LED lamps for 2 hours (40 W/m^2). • 5. Samples diluted to 10^−4 and culture controls diluted to 10^−5 for plating through series dilutions. • 6. 0.1 mL plated of each sample in triplicates on TSA base (10^−3 and 10^−4 for samples. 10^−4 and 10^−5 for controls). • 7. Incubated overnight at 37° C. • 8. Colonies counted next morning and recorded.

[3] = tested on: Sclerotinia homoeocarpa; test: Radial growth of dollar spot fungus after treatment of plugs in PBS (24 well plates), dark vs light; details: rate 10 μM, growth between 48 and 72 hours
Description: In this example, control of dollar spot fungus (Sclerotinia homoeocarpa) with chlorins combined with a chelating agent was assessed. Treatments were prepared in Phosphate Buffered Saline (PBS) in 24 well plates (in duplicates for light vs. dark incubation) at desired concentrations. Then, a 5 mm diameter plug of a Sclerotinia homoeocarpa isolate (3 isolates total tested) was inoculated into the PBS and incubated at 21° C. in the dark for 2 hours. After 2 hours, one of the 24 well plates (with isolates in triplicate) is left in the dark and one 24 well plate is placed under illumination for 1 hour (all at 21° C.). Following illumination, fungal plugs are removed from PBS, blotted dry on sterile filter paper and transferred to non-amended Potato Dextrose Agar (PDA). Radial growth of the fungus is monitored daily until the growth of S. homoeocarpa reaches the edge of the Petri-dish. Illumination is provided by LED lights emitting about 1000 μmol/m^2/s photosynthetically active radiation (PAR). In this example, control of dollar spot fungus (Sclerotinia homoeocarpa) with Zinc Protoporphyrin IX (Zn-PPIX) combined with EDTA was assessed. Treatments were prepared in Phosphate Buffered Saline (PBS) in 24 well plates (in duplicates for light vs. dark incubation) at desired concentrations. Then, a 5 mm diameter plug of a Sclerotinia homoeocarpa isolate (3 isolates total tested) was inoculated into the PBS and incubated at 21° C. in the dark for 2 hours. After 2 hours, one of the 24 well plates (with isolates in triplicate) is left in the dark and one 24 well plate is placed under illumination for 1 hour (all at 21° C.). Following illumination, fungal plugs are removed from PBS, blotted dry on sterile filter paper and transferred to non-amended Potato Dextrose Agar (PDA). Radial growth of the fungus is monitored daily until the growth of S. homoeocarpa reaches the edge of the Petri-dish. Illumination is provided by LED lights emitting about 1000 μmol/m^2/s photosynthetically active radiation (PAR). In this example, control of dollar spot fungus (Sclerotinia homoeocarpa) with bacteriochlorin combined with EDTA was assessed. Treatments were prepared in Phosphate Buffered Saline (PBS) in 24 well plates (in duplicates for light vs. dark incubation) at desired concentrations. Then, a 5 mm diameter plug of a Sclerotinia homoeocarpa isolate (3 isolates total tested) was inoculated into the PBS and incubated at 21° C. in the dark for 2 hours. After 2 hours, one of the 24 well plates (with isolates in triplicate) is left in the dark and one 24 well plate is placed under illumination for 1 hour (all at 21° C.). Following illumination, fungal plugs are removed from PBS, blotted dry on sterile filter paper and transferred to non-amended Potato Dextrose Agar (PDA). Radial growth of the fungus is monitored daily until the growth of S. homoeocarpa reaches the edge of the Petri-dish. Illumination is provided by LED lights emitting about 1000 μmol/m^2/s photosynthetically active radiation (PAR). In this example, control of dollar spot fungus (Sclerotinia homoeocarpa) with Aluminum chlorin e6 combined with EDTA was assessed. Treatments were prepared in Phosphate Buffered Saline (PBS) in 24 well plates (in duplicates for light vs. dark incubation) at desired concentrations. Then, a 5 mm diameter plug of a Sclerotinia homoeocarpa isolate (3 isolates total tested) was inoculated into the PBS and incubated at 21° C. in the dark for 2 hours. After 2 hours, one of the 24 well plates (with isolates in triplicate) is left in the dark and one 24 well plate is placed under illumination for 1 hour (all at 21° C.). Following illumination, fungal plugs are removed from PBS, blotted dry on sterile filter paper and transferred to non-amended Potato Dextrose Agar (PDA). Radial growth of the fungus is monitored daily until the growth of S. homoeocarpa reaches the edge of the Petri-dish. Illumination is provided by LED lights emitting about 1000 μmol/m^2/s photosynthetically active radiation (PAR). […]

[4] = Table 17D, light, rate 31.62 μM
[5] = Table 17D, light, rate 316.2 μM
[6] = Table 16B, light, Chlorin Rate 5 μM
[7] = Table 16B, light, Chlorin Rate 10 μM
[8] = Table 16B, light, Chlorin Rate 31 μM

O=C(O)CC(NC(CC(=O)O)C(=O)O)C(=O)O (stereo not shown) [Baypure CX (IDS), tetrasodium iminodisuccinate]
inhibition at 500 µM ([1]; Table 14A, dark, rate 500 μM): 6.2% | inhibition at 1000 µM ([1]; Table 14A, dark, rate 1000 μM): 15.2% | inhibition at 2000 µM ([1]; Table 14A, dark, rate 2000 μM): 31.3% | inhibition at 500 µM ([1]; Table 14B, light, rate 500 μM): 8.6% | inhibition at 1000 µM ([1]; Table 14B, light, rate 1000 μM): 18% | inhibition at 2000 µM ([1]; Table 14B, light, rate 2000 μM): 30.9% | Mean Radial Growth ([1]; Table 14A, dark, rate 500 μM): 12.7 mm | Mean Radial Growth ([1]; Table 14A, dark, rate 1000 μM): 11.4 mm | Mean Radial Growth ([1]; Table 14A, dark, rate 2000 μM): 9.3 mm | Mean Radial Growth ([1]; Table 14B, light, rate 500 μM): 11.8 mm | Mean Radial Growth ([1]; Table 14B, light, rate 1000 μM): 10.6 mm | Mean Radial Growth ([1]; Table 14B, light, rate 2000 μM): 8.9 mm | % Inactivation [2]: 67.8% | CFU/mL [2]: 2.09E+06 CFU/mL | LogCFU/mL [2]: 6.32 LogCFU/mL

C=Cc1c(C)c2cc3nc(c(CC(=O)O)c4[n-]c(cc5nc(cc1[n-]2)C(C)=C5CC)c(C)c4C(=O)O)C(CCC(=O)O)C3C.[Co+2] (stereo not shown) [CoCe6, reference compound]
% Inhibition ([1]; Table 17A, dark, rate 10 μM): 2.05% | Mean Radial Growth ([1]; Table 17A, dark, rate 10 μM): 13.3 mm | % Inhibition ([1]; Table 17A, dark, rate 31 μM): 4.92% | Mean Radial Growth ([1]; Table 17A, dark, rate 31 μM): 12.9 mm | % Inhibition ([1]; Table 17B, light, rate 10 μM): 3.0% | Mean Radial Growth ([1]; Table 17B, light, rate 10 μM): 12.4 mm | % Inhibition ([1]; Table 17B, light, rate 31 μM): 3.9% | Mean Radial Growth ([1]; Table 17B, light, rate 31 μM): 12.3 mm

C=Cc1c(C)c2cc3nc(c(CC(=O)[O-])c4[n-]c(cc5nc(cc1[n-]2)C(C)=C5CC)c(C)c4C(=O)[O-])C(CCC(=O)[O-])C3C.[Cu+2].[Na+].[Na+].[Na+] (stereo not shown) [Cu Chlorophyllin (CuChln), Cu chlorophyllin, reference compound]
% Inhibition ([1]; Table 17C, dark, rate 31.62 μM): −3.13% | Mean Radial Growth ([1]; Table 17C, dark, rate 31.62 μM): 14.30 mm | % Inhibition ([1]; Table 17C, dark, rate 100 μM): −3.37% | Mean Radial Growth ([1]; Table 17C, dark, rate 100 μM): 14.33 mm | % Inhibition ([1]; Table 17C, dark, rate 316.2 μM): −5.29% | Mean Radial Growth ([1]; Table 17C, dark, rate 316.2 μM): 14.60 mm | % Inhibition ([1]; Table 17C, dark, rate 1000 μM): −3.85% | Mean Radial Growth ([1]; Table 17C, dark, rate 1000 μM): 14.40 mm | % Inhibition [1, 4]: −18.93% | Mean Radial Growth [1, 4]: 14.03 mm | % Inhibition ([1]; Table 17D, light, rate 100 μM): −20.34% | Mean Radial Growth ([1]; Table 17D, light, rate 100 μM): 14.20 mm | % Inhibition [1, 5]: −26.55% | Mean Radial Growth [1, 5]: 14.93 mm | % Inhibition ([1]; Table 17D, light, rate 1000 μM): −28.81% | Mean Radial Growth ([1]; Table 17D, light, rate 1000 μM): 15.20 mm

CC1=C(CCC(=O)O)c2cc3[nH]c(cc4nc(cc5[nH]c(cc1n2)c(C(C)O)c5C)C(C(C)O)=C4C)c(C)c3CCC(=O)O.Cl.Cl (stereo not shown) [Hematoporphyrin IX dichloride (HemIX), hematoporphyrin IX dichloride]
% Inhibition ([3]; Table 22A, dark): −5.45% | Mean Radial Growth ([3]; Table 22A, dark): 15.06 mm | % Inhibition ([3]; Table 22B, light): 38.87% | Mean Radial Growth ([3]; Table 22B, light): 8.39 mm

C=Cc1c(C)c2cc3nc(c(CC(=O)O)c4[n-]c(cc5nc(cc1[n-]2)C(C)=C5CC)c(C)c4C(=O)O)C(CCC(=O)O)C3C.[Pd+2] (stereo not shown) [PdCe6]
% Inhibition ([1]; Table 16A, dark, rate 5 μM): 18.82% | Mean Radial Growth ([1]; Table 16A, dark, rate 5 μM): 11.5 mm | % Inhibition ([1]; Table 16A, dark, rate 10 μM): 36.47% | Mean Radial Growth ([1]; Table 16A, dark, rate 10 μM): 9.0 mm | % Inhibition ([1]; Table 16A, dark, rate 31 μM): 42.75% | Mean Radial Growth ([1]; Table 16A, dark, rate 31 μM): 8.1 mm | % Inhibition [1, 6]: 49.3% | Mean Radial Growth [1, 6]: 6.2 mm | % Inhibition [1, 7]: 76.9% | Mean Radial Growth [1, 7]: 2.8 mm | % Inhibition [1, 8]: 100.0% | Mean Radial Growth [1, 8]: 0 mm
